SMILES strings stand for the structures. Where a name gives a salt, the structure may show the parent alone. Read-outs that look alike come from different tables or passages of the source.

The text below walks through data of US4007165A (priority 1974, dated 1977).

Data set [1] in a line: Curing of unsaturated polyester-styrene resin. As for the experimental part: An unsaturated polyester resin was made by reacting maleic anhydride (1.0 mole), phthalic anhydride (1.0 mole), and propylene glycol (2.2 moles) until an acid number of 45-50 was obtained. To this was added hydroquinone at a 0.013% concentration. Seven parts of this unsaturated polyester was diluted with 3 parts of monomeric styrene to obtain a homogeneous blend having a viscosity of 13.08 poise and a specific gravity of 1.14.
To 20 grams of this blend was added 0.128 gram of alpha-(tert.-butylazo)isobutyronitrile and the resultant composition placed in a constant temperature bath at 212° F. (100° C.). […] At 180° F. (82.2° C.), a peak exotherm of 381° F. (193.9° C.) was obtained in 13.3 minutes. The resultant cured materials were very hard.
The procedure of Example III was used at 212° F. (100° C.) and 240° F. (115.6° C.) where peak exotherms of 414° F. (212.2° C.) and 440° F. (226.7° C.) were obtained after 10.0 and 5.3 minutes respectively using 0.2 gram of the 1-tert.-butylazo-1-cyanocyclohexane. The resultant cured resins were very hard.
The curing procedure and resin are described in Example III.

Data set [2] is described as follows: Emulsion polymerization of ethyl acrylate. Conditions: 3.65 × 10^-^4 moles initiator, 85°-87° C. As for the experimental part:
An emulsion containing 50 g. of deionized water, 40 g. ethyl acrylate, 4.8 g. Triton X-200, Rohm & Haas anionic surfactant, and 0.0769 g. (3.65 × 10^-^4 moles) α-tert-butylazo-α-methyl-γ-carboxy-butyronitrile (from Example X) was prepared. Approximately 25 g. of the emulsion was placed in a 250 ml. 4-neck round bottom flask equipped with a mechanical stirrer, thermometer and condenser. Nitrogen was passed through the system and the contents of the flask were heated to the reflux temperature of 82° C. When the temperature rose to 90° C., indicating polymerization was occurring, the balance of the emulsion was slowly added from a self-venting addition funnel, maintaining the temperature at 85°-87° C. At the end of the addition the temperature was raised to 95° C. for 5 minutes, a very small amount of hydroquinone added and the reaction cooled to room temperature. The total reaction times was 11/3 hours. The final pH was 3.6. A 5 g. aliquot was weighed into a tared dish and the monomers and water evaporated and the conversion of monomer to polymer was determined to be 94%.
A similar polymerization was run under the same conditions using 3.65 × 10^-^4 moles of the sodium salt of α-tert-butylazo-α-methyl-γ-carboxybutyronitrile as the initiator. The conversion was 92.3% and the final pH was 6.6.

The conditions of data set [3]: for temperature at which it begins to evolve nitrogen: onset.
Data set [4] is described as follows: Polymerization of styrene, dilatometer rates. The conditions noted are these: rate at 10% conversion. As for the experimental part: A solution of styrene containing 5 × 10^-^4 moles per deciliter of alpha-(tert.-butylazo)isobutyronitrile was heated at 85° C. and the change in density, which is a measure of polymer formation, was followed by means of a dilatometer to measure polymerization rates at 5% and 10% conversion to polystyrene. […] Without the alpha-(tert.-butylazo)-isobutyronitrile, the 5 and 10% rates were 0.92 × 10^-^3 moles per liter per minute. Thus, this azo compound initiated the polymerization of styrene at 85° C.
The procedure of Example II was used at 85° C. and 100° C. […] Without the 1-tert.-butylazo-1-cyanocyclohexane, the 5% and 10% rates at 100° C. were 2.81 × 10^-^3 moles per liter per minute.
A solution of styrene containing 5×10^^-4 moles per deciliter of the tert.-alkyl-α-substituted-azoalkane was heated in a constant temperature oil bath (the temperature of the bath depending on the thermal stability of the individual azo compounds) and the change in density, which is a measure of polymer formation, was followed by means of a dilatometer to measure polymerization rates (Rp) at 5% and 10% conversion to polystyrene. The rates obtained at 5% and 10% conversion are recorded in moles per liter per minute in Table LXXXII for the individual azo compounds. Their rate at 10% conversion (f1) is divided by the rate of a standard (f2) at the same temperature and concentration to give an efficiency rating f1 / f2.

Data set [5] in a line: Oxidation of iodide ion to free iodine.
Data set [6] is described as follows: Polymerization of styrene in sealed tube at 70° C. Conditions: for dry polymer weight: 10.0 grams styrene. As for the experimental part:
An 18 × 150 mm pyrex test tube was filled with 10.0 grams of distilled styrene monomer and 0.121 grams (8.4 × 10^^-4 moles) of 2-t-butylazo-2-hydroxypropane. The test tube was flushed out with nitrogen and placed in a constant temperature bath thermostatted at 70° C. After 4.0 hours at 70° C, the tube was removed and quickly chilled to -20° F to prevent post polymerization. The sealed tube was then broken and the polymer dissolved in 1000 ml of methanol to precipitate the polystyrene. The polymer was separated by filtration and dried in an oven at 50°-55° C. The dry polymer weighed 3.4 grams (34% conversion). The rate of conversion of monomer to polymer was 8.5% per hour.
An 18 × 150 mm pyrex test tube was filled with 10.0 grams of distilled styrene monomer and 0.134 grams (8.5 × 10^^-4 moles) of 2-t-butylazo-2-hydroxybutane from Example V. The test tube was flushed out with nitrogen and placed in a constant temperature thermostatted bath at 70° C. After 6.0 hours at 70° C, the tube was removed and quickly chilled to -20° F to prevent post polymerization. The sealed tube was then broken and the polymer dissolved in 1000 ml of methanol to precipitate the polystyrene. The polymer was separated by filtration and dried in an oven at 50°-55° C. The dry polymer weighed 4.8 grams (48% conversion). The rate of conversion of monomer to polymer was 8.0% per hour.

Data set [7] can be described thus: Curing of unsaturated polyester-styrene resin. The source holds these as a separate data set.
The conditions of data set [8]: cited from earlier work.
The conditions of data set [9]: commercial compound, background statement; cited from earlier work.
Where [10] appears, read: 180° F. (82.2° C.), 1.0 weight per cent.
The mark [11] stands for this setting: 212° F. (100° C.), 1.0 weight per cent.
Setting [12] is: room temperature, 1.0 weight per cent.
The mark [13] stands for this setting: 240° F. (115.6° C.), 1.0 weight per cent.
Where [14] appears, read: 265° F. (129.4° C.), 1.0 weight per cent.
[15] abbreviates: 85° C., standard f2 benzoyl peroxide.

As to `CC(C)(C)N=NC(C)(C#N)CCC(=O)O` (stereo not drawn) [Example X, alpha-tert.-butylazo-alpha-methyl-gammacarboxybutyronitrile], in data set [1], the “hardness of cured resin” value is given as “very hard”. Also, the peak exotherm is listed as 410 ° F in data set [1] (setting [10]) and 422 ° F in data set [1] (setting [11]). Also, the “time to peak exotherm” value was found to be 8.5 min in [1] (setting [10]) and 3.8 min in [1] (setting [11]). Moreover, the “conversion of monomer to polymer” value in data set [2] is reported as 94%. In addition, in data set [3], the “temperature at which it begins to evolve nitrogen” value (“temperature at which it begins” for short) was 85 °C.

Consider `CC(C)(C)N=NC1(N=[N+]=[N-])CCCCC1` [XLI, 1-t-butylazo-1-azidocyclohexane], for which, in data set [4] (100° C., standard f2 t-butyl perbenzoate), the “f1 /f2 efficiency rating” value was 0.58.

On to `CC(C)(C)N=NC(C)(C#N)CCC(=O)O` (stereo not drawn) [sodium salt of α-tert-butylazo-α-methyl-γ-carboxybutyronitrile], for which the “conversion of monomer to polymer” value in data set [2] is 92.3%.

Turning to `CN(C)C(=O)N=NC(C)(C)C` [XV, tert.-butylazo-N,N-dimethylformamide], in data set [5], the “oxidizing of iodide ion” value was “oxidized iodide ion to free iodine”.

As to `CC(C)(C)N=NC(C)(C)O` [LXXII, 2-t-Butylazo-2-hydroxypropane], in [6] (4.0 hours), the “rate of conversion of monomer to polymer” value is on record as 8.5 % per hour and the dry polymer weight was 3.4 grams. In data set [6] (4.0 hours, 8.4 × 10^^-4 moles in 10.0 grams styrene), this compound had a conversion of 34%.

Consider `COC1(N=NC(C)(C)C)CCCCC1` [XXXV, 1-t-butylazo-1-methoxycyclohexane], for which, in [1] (bath 145° C.), the “Minutes to Peak Exotherm” value was 5.7 min and the “peak exotherm” value is 396 ° F. Also, in data set [7] (bath 145° C.), the “Barcol Hardness” value amounted to 40.

For the compound `CC(C)CC(C)(N=NC(C)(C)C)c1ccccc1` (stereo not shown) [Example LXII, 2-t-Butylazo-2-phenyl-4-methylpentane], in [4] (70° C., standard f2 benzoyl peroxide), the “f1 /f2 efficiency rating” value was 1.41.

For `CCC(C)(O)N=NC(C)(C)C` (stereo not shown) [2-t-butylazo-2-hydroxybutane], in data set [6] (6.0 hours), the “rate of conversion of monomer to polymer” value stood at 8.0 % per hour and the dry polymer weight is given as 4.8 grams. For the same compound, the conversion in data set [6] (6.0 hours, 8.5 × 10^^-4 moles in 10.0 grams styrene) came out at 48%.

For the compound `CCCCC(C)(CC(C)C)N=NC(C)(C)C` (stereo not shown) [Example LXI, 4-t-Butylazo-2,4-dimethyloctane], in data set [1] (bath 130° C.), the “Barcol Hardness” value amounted to 40 and the “Minutes to Peak Exotherm” value is 11.1 min. For the same compound, the “peak exotherm” value in data set [7] (bath 130° C.) was 382 ° F.

Regarding `CC(C)(C)N=NC(=O)C(C)(C)C` [Example XIX, Pivaloyl tert.-butyldiimide], the “hardness of cured resin” value in [1] is “very hard”. The peak exotherm is 289 ° F in data set [1] (setting [10]) and 139 ° F in [7] (setting [12]). For the same compound, the “time to peak exotherm” value in [1] (setting [10]) stood at 4.9 min; in data set [1] (setting [12]), 34.1 min. In data set [3], the “temperature at which it evolves nitrogen” value is 35 °C.

For `COC(=O)CNC(=O)N=NC(C)(C)C` [XVI, tert.-butylazo-N-carbmethoxymethylformamide], the “hardness of cured resin” value in data set [1] is reported as “very hard”. For the same compound, in data set [1] (setting [13]), the peak exotherm amounted to 356 ° F and the “time to peak exotherm” value was 15.8 min. Besides, in data set [1] (setting [14]), the peak exotherm came out at 484 ° F and the “time to peak exotherm” value was determined as 5.1 min. Besides, the “oxidizing of iodide ion” value in data set [5] is listed as “oxidized iodide ion to free iodine”. The “temperature at which it begins” value in [3] is 140 °C.

As to `CC(C)(N=NC(N)=O)c1ccccc1` [XVIII, Tert.-cumylazoformamide], the “hardness of cured resin” value in data set [1] is given as “very hard”. In addition, the peak exotherm in data set [1] (setting [13]) was 422 ° F; in data set [1] (setting [14]), 454 ° F. Besides, the “time to peak exotherm” value was determined as 10.3 min in data set [1] (setting [13]) and 6.0 min in data set [1] (setting [14]). The “oxidizing of iodide ion” value in data set [5] is reported as “oxidized iodide ion to free iodine”. Besides, in [3] (room temperature or on melting), the “gas/nitrogen evolution or decomposition” value is on record as “rapidly evolves nitrogen upon melting”.

On to `CC(C)(C)N=NC(=O)NCC(=O)O` [XVII, tert.-butylazo-N-carboxymethylformamide], for which the “oxidizing of iodide ion” value in [5] is “oxidized iodide ion to free iodine”. Further, the “temperature at which it begins” value in data set [3] was determined as 60 °C.

`CC(C)(C)N=NC1=CCCCC1` [XXIII, 1(-tert.-butylazo)cyclohexene]: the “gelling of resin” value in data set [7] (room temperature) is given as “gelled”. Also, in data set [3], the “temperature at which it evolves nitrogen” value came out at 60 °C.

Consider `CC(C)(C)N=NC1(c2ccccc2)CCCCC1` [Example LXIII, 1-t-Butylazo-1-phenylcyclohexane], for which, in data set [1] (bath 100° C.), the “Barcol Hardness” value is recorded as 35, the “Minutes to Peak Exotherm” value stood at 4.8 min and the “peak exotherm” value was 435 ° F. In addition, the “f1 /f2 efficiency rating” value in data set [4] (setting [15]) was 1.32.

In the case of `COC(C)(C)CC(C)(N=NC(C)(C)C)OC` (stereo not shown) [XXXVIII, 2-t-butylazo-4-methyl-2,4-dimethoxypentane], the “f1 /f2 efficiency rating” value in [4] (115° C., standard f2 di-t-butyl peroxide) stood at 0.38.

`COC(C)(C)CC(C)(N=NC(C)(C)C)N=[N+]=[N-]` (stereo not shown) [XLIV, 2-t-butylazo-2-azido-4-methyl-4-methoxypentane]: the “f1 /f2 efficiency rating” value in data set [4] (setting [15]) stood at 1.19.

In the case of `CC(C)(C)N=Nc1nc(N=NC(C)(C)C)nc(N=NC(C)(C)C)n1` [XXI, 2,4,6-Tri-(tert.-butylazo)-1,3,5-triazine], the “oxidizing of iodide ion” value in [5] is “oxidized iodide ion to free iodine”. For the same compound, the “temperature at which it begins” value in data set [3] was determined as 102 °C.

For `CC(C)(C#N)N=NC(C)(C)C#N` [2, 2'-AZOBISISOBUTYRONITRILE], the “solubility” value was “very low or limited solubility” in data set [8] (common organic solvents: aromatic hydrocarbons, dioxane, alcohol, ether, carbon tetrachloride) and “insoluble” in data set [8] (petroleum hydrocarbon solvents). In data set [9], the “toxicity” value was “toxic solid”.
